Read-outs that look alike come from different tables or passages of the source. Where a SMILES comes first, the peptide text is derived from it. [ ]: non-standard residue; d: D form. Arg(Me) = CNC(=N)NCCC[C@H](N)C(=O)O; Hyp = O=C(O)[C@@H]1C[C@@H](O)CN1; azaGly = NNC(=O)O
Assays:
[1] = Multiple-dose PK, 2-hour SC infusion once daily for 14 days, Japanese prostate cancer patients; format: in vivo, human; settings: for half-life / Cmax / Tmax / AUC / Vd/F / AUC(0-inf) / MRT: male, human, in vivo; for AUC: read-out: AUC (0-tau); for Vd/F: read-out: Vz/F
Protocol: It was an open-label, ascending dose study of API-MA administered via 2-hour SC infusion once daily for 14 days that was expected to suppress testosterone in Japanese hormone-naïve prostate cancer patients. Six patients received API-MA at doses of 0.5 mg (3 patients) and 1.0 mg (3 patients) a day for 14 days.
To measure plasma concentrations of API-MA, blood specimens were collected at the following times: Day 1 (predose and 2, 4, 6, 10 hours postdose); days 2, 4, 6, 8, 10, and 12 (predose); day 14 (predose and 2, 4, 6, 10, 24, 48 hours postdose); day 21; and day 28. To measure urinary excretion of API-MA, urine specimens were collected at the following times: Day 1 (predose and 0 to 4, 4 to 8, 8 to 12, 12 to 24 hours postdose) and day 14 (0 to 4, 4 to 8, 8 to 12, 12 to 24 hours postdose).

[2] = Pharmacokinetics in monkeys after SC and IV administration; settings: monkey, in vivo, monkeys; for AUC(0-t): read-out: AUC(0-24); for bioavailability: read-out: BA (bioavailability); for Cmax: read-out: Cmax
From the text: The PK of API-MA was studied in monkeys after SC and IV administration.

[3] = In vitro distribution into blood cells, dogs; format: in vitro ADME
Protocol: The in vitro distribution ratios of [^14C]API-MA into the blood cells at the concentrations of 0.01, 0.1, 1, and 10 μg/mL API-FB (free form) were 7.8%, 8.0%, 7.1%, and 4.8% for rats, 2.4%, 2.0%, 1.6%, and 1.2% for dogs, and 2.0%, 0.0%, 0.0%, and 0.5% for humans, respectively. […] The in vitro plasma protein binding ratios of [^14C]API-FB in rats, dogs, monkeys, and humans were determined by the ultracentrifugation method. In addition, the protein binding to human serum albumin (HSA), α1-acid glycoprotein (AGP), and HSA/AGP was investigated. […] In rats and dogs, a slight decrease in the binding ratio at the concentration range between 0.1 and 1.0 μg/mL API-FB was observed. In monkeys and humans, the binding was independent of the drug concentrations from 0.01 to 10 μg/mL API-FB.

CYP2C9 = CYP2C9 (Homo sapiens, UniProt P11712); test: Inhibition of recombinant CYP2C9; format: in vitro ADME
[4] = Pharmacokinetics in dogs after SC and IV administration; settings: dog, in vivo, dogs; for AUC(0-t): read-out: AUC(0-24); for Cmax: read-out: Cmax; for bioavailability: read-out: BA (bioavailability)
From the text: The PK of API-MA was studied in dogs after SC and IV administration.

[5] = Pharmacokinetics in rats after SC and IV administration; settings: rat, in vivo, rats; for AUC(0-t): read-out: AUC(0-24); for level at 5 min: read-out: C5min; for Cmax: read-out: Cmax
Protocol: The PK of API-MA was studied in rats after SC and IV administration.
The PK linearity of API-MA was also investigated in rats after IV administration. The plasma C5min and AUC(0-24) values increased dose-proportionally. […] The elimination T1/2 values were 0.4 hours at 0.01 and 0.1 mg/kg and 0.5 hours at 1 mg/kg. These findings indicate that the PK of API-FB was linear in rats after single IV administration over the dose range of 0.01 to 1 mg/kg. The greater than dose-proportional increase in the first-pass kinetics with SC administration would indicate nonlinear PK in rats after SC administration.

[6] = Japanese prostate cancer patients, 2-hour SC infusion 0.5 mg/day, Day 1, mean
[7] = Japanese prostate cancer patients, 2-hour SC infusion 0.5 mg/day, Day 14, mean
[8] = Japanese prostate cancer patients, 2-hour SC infusion 1.0 mg/day, Day 1, mean
[9] = Japanese prostate cancer patients, 2-hour SC infusion 1.0 mg/day, Day 14, mean
[10] = sc, 0.5 mg/day, Japanese prostate cancer patients, 2-hour SC infusion 0.5 mg/day, Day 1, mean
[11] = sc, 0.5 mg/day, Japanese prostate cancer patients, 2-hour SC infusion 0.5 mg/day, Day 14, mean
[12] = sc, 1 mg/day, Japanese prostate cancer patients, 2-hour SC infusion 1.0 mg/day, Day 1, mean
[13] = sc, 1 mg/day, Japanese prostate cancer patients, 2-hour SC infusion 1.0 mg/day, Day 14, mean
[14] = IV 1 mg/kg, read-out: T½ γ (elimination) (converted)
[15] = SC 0.1 to 10 mg/kg, read-out: Tmax, range over the tested SC doses
[16] = bolus IV 1 mg/kg, read-out: Cmax (C5 min)

Sequence of CYP2C9 (P11712 whole entry): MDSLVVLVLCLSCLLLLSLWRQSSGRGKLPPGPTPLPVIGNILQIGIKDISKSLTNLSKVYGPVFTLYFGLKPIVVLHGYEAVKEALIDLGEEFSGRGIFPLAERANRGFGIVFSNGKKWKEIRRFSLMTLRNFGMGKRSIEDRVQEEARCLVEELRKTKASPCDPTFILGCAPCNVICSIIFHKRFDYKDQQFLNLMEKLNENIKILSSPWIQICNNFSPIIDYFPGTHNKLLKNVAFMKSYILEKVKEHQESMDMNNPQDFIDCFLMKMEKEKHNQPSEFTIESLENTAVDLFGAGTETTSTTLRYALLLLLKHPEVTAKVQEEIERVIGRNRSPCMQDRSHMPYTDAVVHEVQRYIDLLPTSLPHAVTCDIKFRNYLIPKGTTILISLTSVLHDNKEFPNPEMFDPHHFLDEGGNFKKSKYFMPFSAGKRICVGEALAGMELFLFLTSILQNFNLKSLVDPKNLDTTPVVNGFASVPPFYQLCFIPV

Q: What does the source list for `CC(=O)O.CNC(=N)NCCC[C@H](NC(=O)[C@H](CC(C)C)NC(=O)NNC(=O)[C@H](Cc1ccccc1)NC(=O)[C@@H](NC(=O)[C@H](CC(N)=O)NC(=O)[C@@H]1C[C@@H](O)CN1C(=O)[C@@H](Cc1ccc(O)cc1)NC(C)=O)[C@@H](C)O)C(=O)N[C@@H](Cc1c[nH]c2ccccc12)C(N)=O` [API-MA, 2-(N-Acetyl-D-tyrosyl-trans-4-hydroxy-L-prolyl-Lasparaginyl-L-threonyl-L-phenylalanyl)-hydrazinocarbonyl-L-leucyl-Nω-methyl-L-arginyl-L-tryptophanamide monoacetate] (Ac-[dY][Hyp]NTF[azaGly]L[Arg(Me)]W-NH2)?
A: CL/F [1, 6]: 13.4 L/h; λz [1, 6]: 0.200 h⁻¹; CL/F [1, 7]: 12.6 L/h; λz [1, 7]: 0.198 h⁻¹; CL/F [1, 8]: 13.6 L/h; λz [1, 8]: 0.221 h⁻¹; CL/F [1, 9]: 13.4 L/h; λz [1, 9]: 0.205 h⁻¹; half-life ([1]; days 1 and 14, both doses (0.5 and 1.0 mg/day), read-out: Mean T1/2): 3 to 4 h; Cmax [1, 10]: 8.12 ng/mL; Tmax [1, 10]: 2.11 h; AUC [1, 10]: 36.5 ng·h/mL; half-life ([1]; sc, 0.5 mg/day, Japanese prostate cancer patients, 2-hour SC infusion 0.5 mg/day, Day 1, mean, read-out: T1/2 (converted)): 3.48 h; Vd/F [1, 10]: 66.9 L; Cmax [1, 11]: 8.13 ng/mL; Tmax [1, 11]: 2.08 h; AUC [1, 11]: 39.1 ng·h/mL; half-life ([1]; sc, 0.5 mg/day, Japanese prostate cancer patients, 2-hour SC infusion 0.5 mg/day, Day 14, mean, read-out: T1/2 (converted)): 3.5 h; Vd/F [1, 11]: 63.5 L; Cmax [1, 12]: 16 ng/mL; Tmax [1, 12]: 2.11 h; AUC [1, 12]: 70.2 ng·h/mL; half-life ([1]; sc, 1 mg/day, Japanese prostate cancer patients, 2-hour SC infusion 1.0 mg/day, Day 1, mean, read-out: T1/2 (converted)): 3.15 h; Vd/F [1, 12]: 61.6 L; Cmax [1, 13]: 15.5 ng/mL; Tmax [1, 13]: 2.11 h; AUC [1, 13]: 71.2 ng·h/mL; half-life ([1]; sc, 1 mg/day, Japanese prostate cancer patients, 2-hour SC infusion 1.0 mg/day, Day 14, mean, read-out: T1/2 (converted)): 3.38 h; Vd/F [1, 13]: 65.7 L; AUC(0-inf) ([1]; 0.5 mg/day, Day 1, mean): 36.8 ng·h/mL; MRT ([1]; 0.5 mg/day, Day 1, mean): 4.78 h; AUC(0-inf) ([1]; 1.0 mg/day, Day 1, mean): 70.6 ng·h/mL; MRT ([1]; 1.0 mg/day, Day 1, mean): 4.64 h; AUC(0-t) ([2]; IV 1 mg/kg): 3160 ng·h/mL; half-life [2, 14]: 3.2 h; AUC(0-t) ([2]; SC 0.1 mg/kg): 295 ng·h/mL; bioavailability ([2]; SC 0.1 mg/kg): 94.9%; Cmax ([2]; SC 0.1 mg/kg): 123 ng/mL; AUC(0-t) ([2]; SC 1 mg/kg): 2790 ng·h/mL; bioavailability ([2]; SC 1 mg/kg): 90.1%; Cmax ([2]; SC 1 mg/kg): 1320 ng/mL; AUC(0-t) ([2]; SC 10 mg/kg): 31600 ng·h/mL; bioavailability ([2]; SC 10 mg/kg): 102%; Cmax ([2]; SC 10 mg/kg): 12100 ng/mL; Tmax [2, 15]: 0.3 to 0.4 h; Cmax at 5 min [2, 16]: 5030 ng/mL; half-life ([2]; multi-exponential decline after reaching Cmax, read-out: Mean terminal elimination T1/2 (converted)): ~2.6 h; Distribution ratio into blood cells ([3]; 0.01 μg/mL API-FB): 2.4%; Distribution ratio into blood cells ([3]; 0.1 μg/mL API-FB): 2.0%; Distribution ratio into blood cells ([3]; 1 μg/mL API-FB): 1.6%; Distribution ratio into blood cells ([3]; 10 μg/mL API-FB): 1.2%; IC50 (CYP2C9): > 7.78 nM; AUC(0-t) ([4]; IV 1 mg/kg): 3090 ng·h/mL; half-life [4, 14]: 3 h; Cmax ([4]; SC 0.1 mg/kg, mean ± SD (n = 4)): 86.6 ng/mL; AUC(0-t) ([4]; SC 0.1 mg/kg): 252 ng·h/mL; bioavailability ([4]; SC 0.1 mg/kg): 81.5%; AUC(0-t) ([4]; SC 1 mg/kg): 2600 ng·h/mL; bioavailability ([4]; SC 1 mg/kg): 84%; Cmax ([4]; SC 1 mg/kg): 883 ng/mL; AUC(0-t) ([4]; SC 10 mg/kg): 28600 ng·h/mL; bioavailability ([4]; SC 10 mg/kg): 92.7%; Cmax ([4]; SC 10 mg/kg): 8840 ng/mL; Tmax [4, 15]: 0.8 to 1 h; Cmax at 5 min [4, 16]: 4250 ng/mL; AUC(0-t) ([5]; iv, 0.01 mg/kg, IV 0.01 mg/kg, PK linearity study): 14 ng·h/mL; AUC(0-t) ([5]; iv, 0.1 mg/kg, IV 0.1 mg/kg, PK linearity study): 140 ng·h/mL; AUC(0-t) ([5]; iv, 1 mg/kg, IV 1 mg/kg, PK linearity study): 1390 ng·h/mL; AUC(0-t) ([5]; iv, 1 mg/kg, IV 1 mg/kg): 1460 ng·h/mL; AUC(0-t) ([5]; sc, 1 mg/kg, SC 1 mg/kg, mean ± SD (n = 5)): 804 ng·h/mL; AUC(0-t) ([5]; sc, 10 mg/kg, SC 10 mg/kg, mean ± SD (n = 5)): 309 ng·h/mL; level at 5 min ([5]; IV 0.01 mg/kg, PK linearity study): 24.1 ng/mL; half-life ([5]; IV 0.01 mg/kg, PK linearity study, read-out: Elimination T1/2 (converted)): 0.4 h; level at 5 min ([5]; IV 0.1 mg/kg, PK linearity study): 250 ng/mL; half-life ([5]; IV 0.1 mg/kg, PK linearity study, read-out: Elimination T1/2 (converted)): 0.4 h; level at 5 min ([5]; IV 1 mg/kg, PK linearity study): 2580 ng/mL; Cmax at 5 min ([5]; IV 1 mg/kg, plasma concentration at 5 minutes, read-out: Cmax (C5 min)): 2670 ng/mL; half-life ([5]; IV 1 mg/kg, read-out: T1/2 alpha phase (converted)): 0.5 h; Cmax ([5]; SC 1 mg/kg, mean ± SD (n = 5)): 381 ng/mL; bioavailability ([5]; SC 1 mg/kg, read-out: BA (bioavailability)): 55.3%; Cmax ([5]; SC 10 mg/kg, mean ± SD (n = 5)): 285 ng/mL; Tmax ([5]; SC, read-out: Tmax, range over all tested SC doses): 0.3 to 0.9 h

Reference: US11013780B2, “Methods of treating female infertility” (Myovant Sciences GmbH, priority 2016, dated 2021)
